Data taken from paper PMC9230590, “Pharmacokinetics and Tissue Distribution of Enavogliflozin in Mice and Rats” (Pharmaceutics, 2022).
“And” between values parts separate entries of the source, which are not always exact repeats. Equal entries are not always repeated. Where two headings read alike, the source gives them in different places.

What was measured:
[1] = Pharmacokinetics after intravenous injection in rats; type: in vivo, Sprague Dawley (SD) rats; conditions: for AUC∞/D / Co/D: dose normalized; for Co / half-life / MRT / clearance / Vd / AUC(0-inf) / AUC(0-t): plasma; for half-life / MRT / clearance / Vd / AUC(0-inf) / AUC(0-t): rat; for half-life / MRT: incomplete elimination phase; for Vd: read-out: Vd,ss
Protocol: Twelve rats were randomly divided into three groups (n = 4 per each group) and injected with an enavogliflozin solution at doses of 0.3, 1, and 3 mg/kg. The drug was dissolved in a mixture of 10% DMSO and 90% saline and administered intravenously via the tail vein. Before blood sampling, rats were anesthetized using 2% isoflurane in a vaporizer with an oxygen flow of 0.8 L/min, for 5 min. Blood samples (approximately 100 µL) were collected at 0, 0.05, 0.33, 0.67, 1, 2, 4, 6, and 8 h via the jugular vein under isoflurane anesthesia using a heparin-treated 1 mL syringe (Jung Lim Co. Ltd., Jincheon, Korea). Samples were centrifuged at 12,000× g for 1 min to separate the plasma. An aliquot (30 µL) of each plasma sample was stored at −80 °C until analysis.
(§1) Concentrations of enavogliflozin in plasma and tissue homogenate samples were analyzed using an Agilent 6430 triple quadrupole liquid chromatography-mass spectrometry (LC–MS/MS) system (Agilent, Wilmington, DE, USA) following a previously published method.
(§2) The data were expressed as the means ± standard deviation for the groups. Pharmacokinetic parameters, such as the area under the plasma concentration–time curve during the period of observation (AUClast), AUC to infinite time (AUC∞), clearance (CL), and volume of distribution at steady-state (Vd,ss), the terminal half-life (t1/2), and mean residence time (MRT) were calculated using non-compartment analysis with WinNonlin software (version 5.1; Pharsights, Cary, NC, USA). The AUC ratios were calculated by dividing the AUClast of enavogliflozin in the tissue samples by the plasma AUClast values of enavogliflozin [15].

[2] = Pharmacokinetics after oral administration in rats; type: in vivo, Sprague Dawley (SD) rats; conditions: for AUC∞/D / Cmax/D: dose normalized; for Cmax/D: in (ng/mL)/(mg/kg); for AUC(0-t) / AUC(0-inf) / Cmax / half-life / MRT / Tmax / bioavailability: rat, plasma; for bioavailability: po
Protocol: Rats were fasted with water ad libitum for at least 12 h before the oral administration of enavogliflozin. Eighteen rats were randomly divided into three groups (n = 6 per each group) and administered the drug dissolved in a mixture of 10% DMSO and 90% saline at doses of 0.3, 1, and 3 mg/kg by oral gavage. Blood samples were collected at 0, 0.083, 0.25, 0.5, 1, 2, 4, 6, 8, and 24 h with the same procedures described above.
as §1, §2

[3] = Recovery from urine and feces over 72 h in rats; type: in vivo, Sprague Dawley (SD) rats; conditions: for Recovery, Feces / Recovery, Urine: parent form
Protocol: Three rats received enavogliflozin (1 mg/kg) intravenously and were returned to metabolic cages with food and water ad libitum and urine and feces samples were collected every 24 h for 72 h. Four rats received enavogliflozin (1 mg/kg) by oral gavage and were returned to their metabolic cages to collect urine and feces samples every 24 h for 72 h with the same protocols described above.
as §1
Aliquots of plasma or urine (30 µL each) and tissue homogenate (50 µL each) were added to 100 µL of aqueous solution of d4-enavogliflozin (IS, 20 ng/mL), and vigorously mixed with 500 µL MTBE for 15 min. After centrifugation at 16,000× g for 5 min, samples were kept for 1 h, at a temperature of −80 °C to freeze the aqueous layer freeze. The organic upper layer was then transferred to a clean tube and evaporated to dryness under a gentle stream of nitrogen. The dried extract was reconstituted in 150 µL of mobile phase, and a 3 µL aliquot was injected into the LC–MS/MS system. Enavogliflozin was separated on a Synergi Polar RP column (2.0 × 150 mm, 4 µm particle size; Phenomenex, Torrence, CA, USA) using a isocratic mobile phase consisting of water (15%) and methanol (85%) containing 0.1% formic acid at a flow rate of 0.25 mL/min.

hepatocytes [4] = tested on: hepatocytes; parameters: method as in PMID 32932946; conditions: rat hepatocytes; cited from earlier work
hepatocytes [5] = tested on: hepatocytes; parameters: method as in PMID 32932946; conditions: monkey hepatocytes; cited from earlier work

## OC[C@H]1O[C@@H](c2cc(Cc3ccc(C4CC4)cc3)c(Cl)c3c2CCO3)[C@H](O)[C@@H](O)[C@@H]1O [enavogliflozin, (2S,3R,4R,5S,6R)-2-(7-chloro-6-(4-cyclopropylbenzyl) -2,3-dihydrobenzofuran-4-yl)-6-(hydroxymethyl)tetrahydro-2H-pyran-3,4,5-triol]
[1]; IV 0.3 mg/kg
  AUC∞/D: 2831.6 ± 359.0
  Co/D: 4231.2 ± 1720.0
  Co: 1269.4 ± 516.0 ng/mL
[1]; IV 1 mg/kg
  AUC∞/D: 2798.6 ± 551.4
  Co/D: 3956.4 ± 1028.2
  Co: 3956.4 ± 1028.2 ng/mL
[1]; IV 3 mg/kg
  AUC∞/D: 2462.4 ± 429.3
  Co/D: 3419.4 ± 1364.8
  Co: 10,258.1 ± 4094.5 ng/mL
[1]; IV 0.3, 1, and 3 mg/kg groups
  plasma concentrations at 24 h: below the detection limit
[1]; Sprague Dawley, IV 0.3 mg/kg
  half-life: 2.6 ± 0.4 h
  MRT: 2.5 ± 0.4 h
  Vd: 0.9 ± 0.2 L/kg
[1]; Sprague Dawley, IV 1 mg/kg
  half-life: 2.9 ± 0.4 h
  MRT: 2.9 ± 0.4 h
  Vd: 1.1 ± 0.1 L/kg
[1]; Sprague Dawley, IV 3 mg/kg
  half-life: 4.3 ± 0.6 h
  MRT: 5.1 ± 1.1 h
  Vd: 2.1 ± 0.4 L/kg
[1]; Sprague Dawley, IV 0.3 mg/kg, read-out: CL
  clearance: 6 ± 0.8 mL/min/kg
[1]; Sprague Dawley, IV 1 mg/kg, read-out: CL
  clearance: 6.2 ± 1.4 mL/min/kg
[1]; Sprague Dawley, IV 3 mg/kg, read-out: CL
  clearance: 6.9 ± 1.2 mL/min/kg
[1]; Sprague-Dawley, IV 0.3 mg/kg
  AUC(0-inf): 850 ± 108 ng·h/mL
  AUC(0-t): 784 ± 94.4 ng·h/mL
[1]; Sprague-Dawley, IV 1 mg/kg
  AUC(0-inf): 2800 ± 551 ng·h/mL
  AUC(0-t): 2510 ± 447 ng·h/mL
[1]; Sprague-Dawley, IV 3 mg/kg
  AUC(0-inf): 7390 ± 1290 ng·h/mL
  AUC(0-t): 5610 ± 751 ng·h/mL
[1]; Sprague-Dawley, IV 0.3–3 mg/kg, all doses together, read-out: Systemic clearance
  clearance: 6.35 ± 1.14 mL/min/kg
[2]; PO 0.3 mg/kg
  AUC∞/D: 1757.6 ± 643.4
  Cmax/D: 171.2 ± 49.9
[2]; PO 1 mg/kg
  AUC∞/D: 1649.3 ± 483.4
  Cmax/D: 183.0 ± 95.6
[2]; PO 3 mg/kg
  AUC∞/D: 1385.4 ± 361.8
  Cmax/D: 100.2 ± 36.1
[2]; Sprague Dawley, PO 0.3 mg/kg
  AUC(0-t): 489 ± 192 ng·h/mL
[2]; Sprague Dawley, PO 1 mg/kg
  AUC(0-t): 1350 ± 565 ng·h/mL
[2]; Sprague-Dawley, PO 0.3 mg/kg
  AUC(0-inf): 527 ± 193 ng·h/mL
  Cmax: 51.3 ± 15 ng/mL
  half-life: 6.3 ± 2.3 h
  MRT: 8.5 ± 3.2 h
  Tmax: 2.5 ± 2.4 h
[2]; Sprague-Dawley, PO 1 mg/kg
  AUC(0-inf): 1650 ± 483 ng·h/mL
  Cmax: 183 ± 95.6 ng/mL
  half-life: 6.9 ± 2.1 h
  MRT: 9.9 ± 3.6 h
  Tmax: 2.5 ± 2.5 h
[2]; Sprague-Dawley, PO 3 mg/kg
  AUC(0-inf): 4160 ± 1090 ng·h/mL
  AUC(0-t): 3250 ± 572 ng·h/mL
  Cmax: 301 ± 108 ng/mL
  half-life: 10.3 ± 7.5 h
  MRT: 14.9 ± 10.6 h
  Tmax: 2.9 ± 2.1 h
[2]; Sprague-Dawley, 0.3 mg/kg, PO 0.3 mg/kg, AUC∞,PO / AUC∞,IV, read-out: BA (absolute bioavailability)
  bioavailability: 62.1%
[2]; Sprague-Dawley, 1 mg/kg, PO 1 mg/kg, AUC∞,PO / AUC∞,IV, read-out: BA (absolute bioavailability)
  bioavailability: 58.9%
[2]; Sprague-Dawley, 3 mg/kg, PO 3 mg/kg, AUC∞,PO / AUC∞,IV, read-out: BA (absolute bioavailability)
  bioavailability: 56.3%
[2]; Sprague-Dawley, 3 mg/kg, range over doses 0.3, 1 and 3 mg/kg, read-out: Oral bioavailability
  bioavailability: 56.3 to 62.1%
[3]; 1 mg/kg IV
  Recovery in feces relative to urine: about 22.7 fold
[3]; 1 mg/kg IV, 0–24 h
  Recovery, Feces: 15.2 ± 6.2 % of Dose
[3]; 1 mg/kg IV, 0–72 h, 1 mg/kg
  Recovery, Feces: 15.9 ± 5.9 % of Dose and 15.9 % of Dose
  Recovery, Urine: 0.7 ± 0.2 % of Dose and 0.7 % of Dose
[3]; 1 mg/kg IV, 24–48 h
  Recovery, Feces: 0.7 ± 0.8 % of Dose
  Recovery, Urine: 0.1 ± 0.0 % of Dose
[3]; 1 mg/kg PO, 0–24 h
  Recovery, Feces: 44.5 ± 11.8 % of Dose
  Recovery, Urine: 0.3 ± 0.1 % of Dose
[3]; 1 mg/kg PO, 0–72 h
  Recovery, Urine: 0.3 ± 0.1 % of Dose
[3]; 1 mg/kg PO, 0–72 h, 1 mg/kg
  Recovery, Feces: 45.5 % of Dose
[3]; 1 mg/kg PO, 24–48 h
  Recovery, Feces: 0.9 ± 0.4 % of Dose
[3]; 1 mg/kg PO, 48–72 h
  Recovery, Feces: 0.2 ± 0.0 % of Dose
  Recovery, Urine: 0.3 ± 0.1 % of Dose
[3]; Sprague-Dawley, rat, urine and feces, 1 mg/kg IV, 72 h, read-out: total recovery (feces + urine)
  dose excreted: ~16.6%
Hepatocytes [4]
  In vitro hepatic clearance: 8.3 mL/min/kg
Hepatocytes [5]
  In vitro hepatic clearance: 18.5 mL/min/kg
